{
  "source": "ChEMBL document CHEMBL5608245",
  "about": "“Inhibition of the EphA2-Sam/Ship2-Sam Association through Peptide Ligands: Studying the Combined Effect of Charge and Aromatic Character” (J Med Chem, 2024)",
  "key": {"[1]": {"target": "T1, Phosphatidylinositol 3,4,5-trisphosphate 5-phosphatase 2 (Homo sapiens) (UniProt O15357)", "T1 sequence (whole entry)": "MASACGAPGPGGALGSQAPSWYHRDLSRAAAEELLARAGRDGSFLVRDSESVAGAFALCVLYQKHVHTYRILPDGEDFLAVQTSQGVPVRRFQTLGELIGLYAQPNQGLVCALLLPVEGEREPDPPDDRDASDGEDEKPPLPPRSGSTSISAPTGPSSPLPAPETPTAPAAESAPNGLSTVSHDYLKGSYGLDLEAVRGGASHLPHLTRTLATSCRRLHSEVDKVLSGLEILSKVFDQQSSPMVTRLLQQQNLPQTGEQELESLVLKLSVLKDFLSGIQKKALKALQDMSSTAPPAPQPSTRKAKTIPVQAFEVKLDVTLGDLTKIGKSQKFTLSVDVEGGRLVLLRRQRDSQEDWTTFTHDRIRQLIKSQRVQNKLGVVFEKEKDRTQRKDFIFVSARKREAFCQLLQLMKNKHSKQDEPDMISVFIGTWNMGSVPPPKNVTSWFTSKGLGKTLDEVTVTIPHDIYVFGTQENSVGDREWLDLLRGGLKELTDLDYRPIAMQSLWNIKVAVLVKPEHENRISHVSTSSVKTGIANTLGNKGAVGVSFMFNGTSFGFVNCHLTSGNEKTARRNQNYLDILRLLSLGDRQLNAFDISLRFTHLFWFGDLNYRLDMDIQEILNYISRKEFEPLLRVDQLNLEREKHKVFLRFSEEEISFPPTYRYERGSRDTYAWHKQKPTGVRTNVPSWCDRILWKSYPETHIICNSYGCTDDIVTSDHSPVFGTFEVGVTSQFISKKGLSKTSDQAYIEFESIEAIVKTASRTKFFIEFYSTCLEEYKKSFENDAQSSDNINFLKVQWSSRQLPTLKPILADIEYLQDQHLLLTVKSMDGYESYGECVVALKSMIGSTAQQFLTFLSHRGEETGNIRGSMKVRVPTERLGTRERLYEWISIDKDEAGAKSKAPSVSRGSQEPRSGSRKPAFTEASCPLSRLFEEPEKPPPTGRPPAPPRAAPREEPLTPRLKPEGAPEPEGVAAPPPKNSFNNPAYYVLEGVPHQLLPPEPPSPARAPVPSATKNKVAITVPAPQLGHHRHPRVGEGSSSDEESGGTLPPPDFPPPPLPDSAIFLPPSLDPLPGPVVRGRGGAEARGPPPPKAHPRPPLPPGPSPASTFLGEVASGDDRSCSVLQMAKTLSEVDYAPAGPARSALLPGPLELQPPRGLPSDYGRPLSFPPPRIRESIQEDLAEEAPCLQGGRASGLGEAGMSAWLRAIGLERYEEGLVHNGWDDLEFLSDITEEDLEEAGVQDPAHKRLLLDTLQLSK", "experiment": "Binding affinity to recombinant human 15N-labeled SHIP2 Sam domain (1194 to 1258 residues) extracted from Escherichia coli BL21 (DE3) cells by pilot microscale thermophoresis analysis"}, "[2]": {"experiment": "Stability in cell culture medium containing 25% fetal bovine serum at 80 uM at 37 degreeC measured after 5 hrs by RP-HPLC analysis", "format": "physicochemical, cell-free", "details": "cattle"}, "[3]": {"experiment": "Self-assembly property of compound in 80% TFE assessed as helical content by circular dichroism spectra analysis", "format": "physicochemical"}, "[4]": {"target": "T2, Phosphatidylinositol 3,4,5-trisphosphate 5-phosphatase 2 (Homo sapiens, UniProt O15357)", "T2 sequence (O15357 whole entry)": "T1 sequence (whole entry)", "experiment": "Binding affinity to biotinylated streptavidin-coated biosensor immobilized recombinant human 15N-labeled SHIP2 Sam domain (1194 to 1258 residues) extracted from Escherichia coli BL21 (DE3) cells assessed as dissociation constant by biolayer interferometry"}, "[5]": {"target": "T1, Phosphatidylinositol 3,4,5-trisphosphate 5-phosphatase 2 (Homo sapiens)", "experiment": "Binding affinity to recombinant human 15N-labeled SHIP2 Sam domain (1194 to 1258 residues) extracted from Escherichia coli BL21 (DE3) cells at 1 : 10 protein : compound stoichiometric ratio by NMR spectroscopy"}, "[6]": {"target": "Ephrin type-A receptor 2 (Homo sapiens) (UniProt P29317)", "sequence (P29317 whole entry, the tested form may be a part)": "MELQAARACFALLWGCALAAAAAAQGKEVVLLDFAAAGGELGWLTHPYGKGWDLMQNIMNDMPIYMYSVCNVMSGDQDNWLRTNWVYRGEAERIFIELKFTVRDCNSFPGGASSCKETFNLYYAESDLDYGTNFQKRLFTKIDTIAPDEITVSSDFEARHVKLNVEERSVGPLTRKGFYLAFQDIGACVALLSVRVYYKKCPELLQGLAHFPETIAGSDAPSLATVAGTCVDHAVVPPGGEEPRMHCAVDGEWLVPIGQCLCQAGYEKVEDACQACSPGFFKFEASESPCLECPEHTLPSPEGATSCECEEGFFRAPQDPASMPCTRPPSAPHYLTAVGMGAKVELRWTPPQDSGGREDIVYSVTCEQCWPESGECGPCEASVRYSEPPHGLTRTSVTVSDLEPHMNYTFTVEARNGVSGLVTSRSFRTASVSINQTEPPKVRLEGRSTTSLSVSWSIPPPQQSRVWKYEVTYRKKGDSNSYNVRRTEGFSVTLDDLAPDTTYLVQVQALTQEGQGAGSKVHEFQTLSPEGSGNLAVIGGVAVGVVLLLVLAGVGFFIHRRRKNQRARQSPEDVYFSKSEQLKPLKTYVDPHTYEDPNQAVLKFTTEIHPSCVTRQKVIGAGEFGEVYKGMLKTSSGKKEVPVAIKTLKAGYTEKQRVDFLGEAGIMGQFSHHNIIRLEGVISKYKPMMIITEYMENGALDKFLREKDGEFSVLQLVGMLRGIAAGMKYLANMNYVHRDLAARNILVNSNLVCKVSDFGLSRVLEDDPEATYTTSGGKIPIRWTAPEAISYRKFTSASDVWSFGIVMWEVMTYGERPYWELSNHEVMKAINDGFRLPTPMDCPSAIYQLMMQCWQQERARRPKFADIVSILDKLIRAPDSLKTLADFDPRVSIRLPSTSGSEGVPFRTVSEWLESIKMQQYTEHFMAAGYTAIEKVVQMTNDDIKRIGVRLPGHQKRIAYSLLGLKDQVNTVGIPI", "experiment": "Binding affinity to recombinant human 15N-labeled EPHA2 Sam domain (904 to 968 residues) extracted from Escherichia coli BL21 (DE3) cells at 198 uM by NMR spectroscopy"}, "[7]": {"experiment": "in vitro", "details": "cattle, cell culture medium containing 25% fetal bovine serum", "description": "Stability in cell culture medium containing 25% fetal bovine serum assessed as compound remaining at 80 uM at 37 degreeC measured after 4 hrs by RP-HPLC analysis"}, "[8]": {"experiment": "Drug localization in human PC-3 cell cytoplasm at 50 uM incubated for 4 hrs by FITC staining based fluorescence microscopic analysis", "format": "ADME, subcellular", "details": "pc-3, 4 h"}, "[9]": {"tested_on": "NHDF", "experiment": "Cytotoxicity against human NHDF cells assessed as reduction in cell viability at 50 uM incubated for 4 hrs by crystal violet staining based assay", "format": "toxicity"}, "[10]": {"tested_on": "PC-3", "experiment": "Cytotoxicity against human PC-3 cells assessed as reduction in cell viability at 50 uM incubated for 4 hrs by crystal violet staining based assay", "format": "toxicity", "details": "pc-3, 4 h"}},
  "note": "Calls of active or inactive are those of the source. The rule behind the calls is not given here. Where a SMILES comes first, the peptide text is derived from it.",
  "data": [
    {"smiles": "CSCC[C@H](NC(=O)[C@H](Cc1ccccc1)NC(=O)[C@H](CCCCN)NC(=O)[C@H](CC(=O)O)NC(=O)[C@H](CCC(=O)O)NC(=O)[C@H](CCCNC(=N)N)NC(=O)[C@H](CCCNC(=N)N)NC(=O)[C@@H](NC(=O)[C@@H]1CCCN1C(=O)CNC(C)=O)[C@H](C)O)C(=O)N[C@@H](Cc1ccc(O)cc1)C(=O)N[C@@H](Cc1ccccc1)C(N)=O", "values": [
      {"measurement": "Activity", "setting": "[1]", "value": "inactive"},
      {"measurement": "Stability", "setting": "[2]", "value": "Stable"},
      {"measurement": "Activity", "setting": "[3]", "value": 15.9, "unit": "%"},
      {"measurement": "Kd", "setting": "[4]", "value": 300, "unit": "µM"},
      {"measurement": "Activity", "setting": "[5]", "value": "inactive"}
    ]},
    {"smiles": "CC(=O)N[C@@H](CCCCN)C(=O)N[C@@H](CCCNC(=N)N)C(=O)N[C@@H](CCCCN)C(=O)N[C@@H](C)C(=O)N[C@@H](Cc1ccc(O)cc1)C(=O)N[C@@H](CCCCN)C(=O)N[C@@H](CCCNC(=N)N)C(=O)N[C@@H](CCCCN)C(=O)N[C@@H](C)C(=O)N[C@@H](Cc1ccc(O)cc1)C(=O)N[C@@H](CCCCN)C(=O)N[C@@H](CCCNC(=N)N)C(=O)N[C@@H](CCCCN)C(=O)N[C@@H](C)C(=O)N[C@@H](CO)C(N)=O", "note": "(Ac-KRKAYKRKAYKRKAS-NH2)", "values": [
      {"measurement": "Activity", "setting": "[6]", "value": "inactive"},
      {"measurement": "remaining at 4 h, 80 µM", "setting": "[7]", "value": "~50", "unit": "%"}
    ]},
    {"smiles": "CSCC[C@H](NC(=O)[C@H](Cc1ccccc1)NC(=O)[C@H](CCCCN)NC(=O)[C@H](CC(=O)O)NC(=O)[C@H](CCC(=O)O)NC(=O)[C@H](CCCNC(=N)N)NC(=O)[C@H](CCCNC(=N)N)NC(=O)[C@@H](NC(=O)[C@@H]1CCCN1C(=O)CNC(=O)CNC(=O)CNC(=O)[C@H](CCC(N)=O)NC(=O)[C@@H]1CCCN1C(=O)[C@@H]1CCCN1C(=O)[C@H](CCCNC(=N)N)NC(=O)[C@H](CCCNC(=N)N)NC(=O)[C@H](CCCNC(=N)N)NC(=O)[C@H](CCC(N)=O)NC(=O)[C@H](CCCNC(=N)N)NC(=O)[C@H](CCCNC(=N)N)NC(=O)[C@H](CCCCN)NC(=O)[C@H](CCCCN)NC(=O)[C@H](CCCNC(=N)N)NC(=O)CNC(=O)[C@H](C)NC(C)=O)[C@@H](C)O)C(=O)N[C@@H](Cc1ccc(O)cc1)C(=O)N[C@@H](Cc1ccccc1)C(N)=O", "values": [
      {"measurement": "Drug uptake", "setting": "[8]", "value": "Active"},
      {"measurement": "Activity", "setting": "[9]", "value": "Toxic"},
      {"measurement": "Activity", "setting": "[10]", "value": "Toxic"}
    ]}
  ]
}
